Experimental data: US7084148B2, “Substituted pyrimidines as selective cyclooxygenase-2 inhibitors” (SmithKline Beecham Corporation, priority 2000, dated 2006)

Tests used:
human COX-2 = biological target: T1, human COX-2 (Homo sapiens, UniProt P35354); assay: Inhibition of PGE2 release in COS cells stably transfected with human COX-2; format: cell-based; details: 30 μM arachidonic acid
T1 construct: expressed in transfected cells
T1 sequence (P35354 18-604): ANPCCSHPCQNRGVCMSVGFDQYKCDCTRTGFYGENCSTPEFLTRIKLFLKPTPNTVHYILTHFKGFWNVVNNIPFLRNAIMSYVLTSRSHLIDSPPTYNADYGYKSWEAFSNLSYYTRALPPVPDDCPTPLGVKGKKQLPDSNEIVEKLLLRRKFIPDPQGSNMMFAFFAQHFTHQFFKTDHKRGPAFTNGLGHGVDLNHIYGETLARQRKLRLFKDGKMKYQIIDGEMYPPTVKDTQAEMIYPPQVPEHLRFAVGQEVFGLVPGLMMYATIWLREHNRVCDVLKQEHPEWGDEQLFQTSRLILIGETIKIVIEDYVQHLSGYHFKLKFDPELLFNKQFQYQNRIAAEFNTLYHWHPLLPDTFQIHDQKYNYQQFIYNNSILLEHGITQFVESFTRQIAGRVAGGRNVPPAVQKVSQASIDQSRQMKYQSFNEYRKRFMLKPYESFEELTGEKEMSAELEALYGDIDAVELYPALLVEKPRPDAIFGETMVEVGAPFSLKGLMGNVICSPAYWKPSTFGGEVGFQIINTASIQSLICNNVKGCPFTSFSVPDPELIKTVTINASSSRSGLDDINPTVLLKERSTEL
Protocol: (§1) Inhibitory activity against human COX-1 and COX-2 was assessed in COS cells which had been stably transfected with cDNA for human COX-1 and human COX-2. 24 Hours prior to experiment, COS cells were transferred from the 175 cm^2 flasks in which they were grown, onto 24-well cell culture plates using the following procedure. The incubation medium (Dulbecco's modified eagles medium (DMEM) supplemented with heat-inactivated foetal calf serum (10% v/v), penicillin (100 IU/ml), streptomycin (100 μg/ml) and geneticin (600 μg/ml)) was removed from a flask of confluent cells (1 flask at confluency contains approximately 1×10^7 cells). 5 ml of phosphate buffered saline (PBS) was added to the flask to wash the cells. Having discarded the PBS, cells were then incubated with 5 ml trypsin for 5 minutes in an incubator […]. The flask was then removed from the incubator and 5 ml of fresh incubation medium was added. The contents of the flask was transferred to a 250 ml sterile container and the volume of incubation medium subsequently made up to 100 ml. 1 ml cell suspension was pipetted into each well of 4×24-well cell culture plates. The plates were then placed in an incubator (37° C., 95% air/5% CO2) overnight. If more than 1 flask of cells were required, the cells from the individual flasks were combined before being dispensed into the 24-well plates.
Following the overnight incubation, the incubation medium was completely removed from the 24-well cell culture plates and replaced with 250 μl fresh DMEM (37° C.). The test compounds were made up to 250× the required test concentration in DMSO and were added to the wells in a volume of 1 μl. Plates were then mixed gently by swirling and then placed in an incubator for 1 hour (37° C., 95% air/5% CO2). […] Plates were then incubated for a further 10 minutes, after which the incubation medium was removed from each well of the plates and stored at −20° C., prior to determination of prostaglandin E2 (PGE2) levels using enzyme immunoassay. […] The selectivity ratio of inhibition of COX-1 versus COX-2 was calculated by comparing respective IC50 values.

human COX-1 = biological target: T2, human COX-1 (Homo sapiens, UniProt P23219); assay: Inhibition of PGE2 release in COS cells stably transfected with human COX-1; format: cell-based; details: 30 μM arachidonic acid
T2 construct: expressed in transfected cells
T2 sequence (P23219 24-599): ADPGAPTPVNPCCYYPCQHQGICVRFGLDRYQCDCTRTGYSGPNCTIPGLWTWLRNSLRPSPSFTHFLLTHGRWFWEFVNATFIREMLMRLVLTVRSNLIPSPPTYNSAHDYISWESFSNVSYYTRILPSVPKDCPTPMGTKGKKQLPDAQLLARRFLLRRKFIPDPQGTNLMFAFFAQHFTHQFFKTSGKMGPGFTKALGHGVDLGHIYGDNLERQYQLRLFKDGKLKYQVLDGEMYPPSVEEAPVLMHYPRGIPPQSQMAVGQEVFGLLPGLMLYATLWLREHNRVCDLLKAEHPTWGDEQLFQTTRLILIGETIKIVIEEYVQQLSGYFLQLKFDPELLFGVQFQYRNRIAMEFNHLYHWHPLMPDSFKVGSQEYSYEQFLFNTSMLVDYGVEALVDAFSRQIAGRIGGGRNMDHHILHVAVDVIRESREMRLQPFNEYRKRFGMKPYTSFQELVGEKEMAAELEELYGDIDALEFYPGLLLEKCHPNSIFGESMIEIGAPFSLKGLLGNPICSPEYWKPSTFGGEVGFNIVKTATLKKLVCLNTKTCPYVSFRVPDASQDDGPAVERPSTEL
Protocol: as §1
Following the overnight incubation, the incubation medium was completely removed from the 24-well cell culture plates and replaced with 250 μl fresh DMEM (37° C.). The test compounds were made up to 250× the required test concentration in DMSO and were added to the wells in a volume of 1 μl. Plates were then mixed gently by swirling and then placed in an incubator for 1 hour (37° C., 95% air/5% CO2). Following the incubation period, 10 μl of arachidonic acid (750 μM) was added to each well to give a final arachidonic acid concentration of 30 μM. Plates were then incubated for a further 10 minutes, after which the incubation medium was removed from each well of the plates and stored at −20° C., prior to determination of prostaglandin E2 (PGE2) levels using enzyme immunoassay. The inhibitory potency of the test compound was expressed as an IC50 value, which is defined as the concentration of the compound required to inhibit the PGE2 release from the cells by 50%. The selectivity ratio of inhibition of COX-1 versus COX-2 was calculated by comparing respective IC50 values.

Row | IC50 (human COX-2) [nM] | IC50 (human COX-1) [nM] | SMILES
1 | 143 | 71800 | CCCCN(c1nc(-c2ccc(S(C)(=O)=O)cc2)cc(C(F)(F)F)n1)C1CCOCC1 [Example 4, 4-[4-(Methylsulfonyl)phenyl]-N-butyl-N-tetrahydro-2H-pyran-4-yl-6-(trifluoromethyl)pyrimidin-2-amine]
2 | 24.9 | 69700 | CCN(c1nc(-c2ccc(S(C)(=O)=O)cc2)cc(C(F)(F)F)n1)C1CCOCC1 [Example 3, 4-[4-(Methylsulfonyl)phenyl]-N-ethyl-N-tetrahydro-2H-pyran-4-yl-6-(trifluoromethyl)pyrimidin-2-amine]
3 | 16.8 | 60400 | CN(c1nc(-c2ccc(S(C)(=O)=O)cc2)cc(C(F)(F)F)n1)C1CCOCC1 [Example 2, 4-[4-(Methylsulfonyl)phenyl]-N-methyl-N-tetrahydro-2H-pyran-4-yl-6-(trifluoromethyl)pyrimidin-2-amine]
4 | 18 | > 91000 | CS(=O)(=O)c1ccc(-c2cc(C(F)(F)F)nc(NC3CCOCC3)n2)cc1 [Example 1, 4-[4-(methylsulfonyl)phenyl]-N-tetrahydro-2H-pyran-4-yl-6-(trifluoromethyl)pyrimidin-2-amine]
